According to US20250367166A1, “NEXT GENERATION DIPROVOCIMS THAT ACTIVATE THE INNATE AND ADAPTIVE IMMUNE RESPONSE” (The Scripps Research Institute, priority 2022, published 2025):
Like-named read-outs stand apart in the source and are kept apart here.

Assays:
[1] = molecular target: TLR1/TLR2 (Homo sapiens, UniProt O60603+Q15399); assay: TNF-α release from PMA-differentiated human THP-1 cells (ELISA); settings: for Emax: THP-1, 4 h, read-out: Efficacy (magnitude) of response versus diprovocim-1 (100%), THP-1;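 as to all read-outs here: cells exposed to graded compound concentrations for 4 h, TNF-α quantified in supernatant, LPS as positive and DMSO as negative control, values are duplicate means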
Method: THP-1 (American Type Culture Collection) cells, a human monocytic leukemia cell line, were differentiated by treatment with 100 nM PMA (Sigma) in Roswell Park Memorial Institute (RPMI) cell culture medium [RPMI containing 10% vol/vol FBS (Gemini Bio Products), 1% penicillin and streptomycin (Life Technologies)] for 24 h. After that, the cells were washed with PBS and cultured in fresh RPMI cell culture medium for 24 h before use in studies. PMA-differentiated THP-1 cells were seeded onto 96-well plates at 0.5×10^5 cells per well and treated with systematically varied concentrations of the candidate compounds (dissolved in DMSO, and the final assay DMSO concentration (0.1%) was kept constant in all experiments) for 4 h. Ultra-pure LPS (dissolved in H2O, Enzo Life Sciences) was assessed alongside the compounds as a positive control and DMSO treated control was used as a negative control. Human TNF-α in the supernatants was measured by ELISA (eBioscience). This assay was used for establishing dose-response curves and measured EC50's. EC50's were calculated by Graphpad Prism. All data is the mean of duplicates and SD is within +10% of mean.

[2] = molecular target: TLR1/TLR2 (Mus musculus, UniProt Q9EPQ1+Q9QUN7); assay: TNF-α release from thioglycolate-elicited mouse peritoneal macrophages (ELISA); settings: for Emax: 4 h, read-out: Efficacy (magnitude) of response versus diprovocim-1 (100%), mouse macrophages
Method: Thioglycolate-elicited macrophages were recovered 4 days after i.p. injection of 2 mL BBL thioglycolate medium, brewer modified (4%; BD Biosciences) by peritoneal lavage with 5 mL phosphate buffered saline (PBS). […] Cells were seeded onto 96-well plates at 1×10^3 cells per well and treated with systematically varied concentrations of the candidate compounds (dissolved in DMSO, and final assay DMSO concentrations (0.5%) were kept constant in all experiments) for 4 h. Ultra-pure LPS (dissolved in H2O, Enzo Life Sciences) was assessed alongside the compounds as a positive control and DMSO treated controls. […] Mouse TNF-α in the supernatants was measured by ELISA kits according to the manufacturer's instructions (eBioscience). EC50's were calculated by Graphpad Prism. All data is mean of duplicates and SD is within ±10% of mean. Mouse cells were from wild type C57BL/6J mice.

[3] = read-out: EC50 (nM) (THP-1): EC50 TNF-α release from human THP-1 cells, Table 6
[4] = read-out: EC50 (nM) (mouse): EC50 TNF-α release from mouse macrophages, Table 6
[5] = read-out: EC50 (nM) (THP-1): EC50 TNF-α release from human THP-1 cells, Table 3
[6] = read-out: EC50 (nM) (mouse): EC50 TNF-α release from mouse macrophages, Table 3
[7] = read-out: EC50 (nM) (THP-1): EC50 TNF-α release from human THP-1 cells, Table 1
[8] = read-out: EC50 (nM) (mouse): EC50 TNF-α release from mouse macrophages, Table 1

Chain of TLR1/TLR2 (Mus musculus, UniProt Q9EPQ1+Q9QUN7) (Q9EPQ1 26-795): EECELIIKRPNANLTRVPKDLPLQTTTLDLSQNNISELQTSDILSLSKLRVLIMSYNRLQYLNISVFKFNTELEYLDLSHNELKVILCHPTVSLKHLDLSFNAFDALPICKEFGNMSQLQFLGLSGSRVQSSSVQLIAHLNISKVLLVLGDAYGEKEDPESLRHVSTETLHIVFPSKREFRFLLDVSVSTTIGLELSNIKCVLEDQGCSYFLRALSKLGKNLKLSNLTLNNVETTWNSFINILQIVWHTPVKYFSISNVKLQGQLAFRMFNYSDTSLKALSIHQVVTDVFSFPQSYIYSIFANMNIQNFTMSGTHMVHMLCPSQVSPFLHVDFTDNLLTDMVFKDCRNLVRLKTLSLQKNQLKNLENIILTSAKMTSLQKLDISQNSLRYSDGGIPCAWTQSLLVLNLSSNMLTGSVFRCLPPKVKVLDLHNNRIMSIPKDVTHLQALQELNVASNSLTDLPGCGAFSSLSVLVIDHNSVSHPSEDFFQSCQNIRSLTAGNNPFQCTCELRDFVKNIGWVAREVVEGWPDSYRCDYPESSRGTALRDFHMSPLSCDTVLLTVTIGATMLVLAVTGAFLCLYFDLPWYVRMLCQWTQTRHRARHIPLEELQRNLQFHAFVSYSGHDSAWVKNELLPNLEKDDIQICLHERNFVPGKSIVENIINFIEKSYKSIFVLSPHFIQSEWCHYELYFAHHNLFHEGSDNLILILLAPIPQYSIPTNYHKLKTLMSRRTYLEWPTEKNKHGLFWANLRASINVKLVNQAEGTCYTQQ
Chain of TLR1/TLR2 (Mus musculus, UniProt Q9EPQ1+Q9QUN7) (Q9QUN7 25-784): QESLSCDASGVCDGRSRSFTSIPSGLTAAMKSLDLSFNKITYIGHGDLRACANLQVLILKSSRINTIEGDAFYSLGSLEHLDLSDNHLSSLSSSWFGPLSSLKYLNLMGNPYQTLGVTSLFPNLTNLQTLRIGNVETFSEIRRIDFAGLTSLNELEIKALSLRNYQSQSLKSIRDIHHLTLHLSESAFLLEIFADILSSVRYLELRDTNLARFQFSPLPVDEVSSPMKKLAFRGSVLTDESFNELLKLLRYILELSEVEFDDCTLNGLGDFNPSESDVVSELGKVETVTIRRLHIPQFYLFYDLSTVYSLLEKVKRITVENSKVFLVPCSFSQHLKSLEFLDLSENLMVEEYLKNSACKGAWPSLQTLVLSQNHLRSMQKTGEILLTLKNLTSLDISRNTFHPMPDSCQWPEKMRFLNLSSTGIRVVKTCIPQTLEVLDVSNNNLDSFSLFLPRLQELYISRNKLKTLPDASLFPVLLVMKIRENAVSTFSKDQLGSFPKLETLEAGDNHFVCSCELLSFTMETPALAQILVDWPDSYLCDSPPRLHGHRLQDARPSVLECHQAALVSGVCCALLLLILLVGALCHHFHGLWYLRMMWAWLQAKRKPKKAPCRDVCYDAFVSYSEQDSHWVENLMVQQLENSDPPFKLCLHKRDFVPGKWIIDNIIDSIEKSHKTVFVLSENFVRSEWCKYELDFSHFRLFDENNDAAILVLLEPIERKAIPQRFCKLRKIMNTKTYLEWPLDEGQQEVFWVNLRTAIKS
Chain of TLR1/TLR2 (Homo sapiens, UniProt O60603+Q15399) (Q15399 25-786): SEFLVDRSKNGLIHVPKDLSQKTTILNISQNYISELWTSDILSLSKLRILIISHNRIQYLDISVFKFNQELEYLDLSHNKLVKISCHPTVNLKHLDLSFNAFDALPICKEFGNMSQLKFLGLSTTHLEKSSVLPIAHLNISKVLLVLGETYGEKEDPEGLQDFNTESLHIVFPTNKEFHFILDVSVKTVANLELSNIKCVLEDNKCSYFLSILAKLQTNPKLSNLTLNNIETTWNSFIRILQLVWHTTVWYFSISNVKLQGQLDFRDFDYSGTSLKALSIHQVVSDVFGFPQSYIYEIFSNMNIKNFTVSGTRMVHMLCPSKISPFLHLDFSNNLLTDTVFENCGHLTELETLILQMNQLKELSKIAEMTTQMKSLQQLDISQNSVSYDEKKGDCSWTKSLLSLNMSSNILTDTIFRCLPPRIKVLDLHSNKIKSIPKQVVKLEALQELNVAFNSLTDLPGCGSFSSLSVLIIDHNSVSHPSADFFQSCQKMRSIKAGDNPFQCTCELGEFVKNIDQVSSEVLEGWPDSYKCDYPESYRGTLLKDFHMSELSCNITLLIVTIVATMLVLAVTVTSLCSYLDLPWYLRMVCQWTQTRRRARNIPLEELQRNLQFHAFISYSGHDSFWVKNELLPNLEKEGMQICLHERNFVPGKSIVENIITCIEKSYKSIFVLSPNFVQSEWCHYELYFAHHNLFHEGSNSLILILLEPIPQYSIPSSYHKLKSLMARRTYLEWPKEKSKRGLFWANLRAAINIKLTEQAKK
Chain of TLR1/TLR2 (Homo sapiens, UniProt O60603+Q15399) (O60603 21-784): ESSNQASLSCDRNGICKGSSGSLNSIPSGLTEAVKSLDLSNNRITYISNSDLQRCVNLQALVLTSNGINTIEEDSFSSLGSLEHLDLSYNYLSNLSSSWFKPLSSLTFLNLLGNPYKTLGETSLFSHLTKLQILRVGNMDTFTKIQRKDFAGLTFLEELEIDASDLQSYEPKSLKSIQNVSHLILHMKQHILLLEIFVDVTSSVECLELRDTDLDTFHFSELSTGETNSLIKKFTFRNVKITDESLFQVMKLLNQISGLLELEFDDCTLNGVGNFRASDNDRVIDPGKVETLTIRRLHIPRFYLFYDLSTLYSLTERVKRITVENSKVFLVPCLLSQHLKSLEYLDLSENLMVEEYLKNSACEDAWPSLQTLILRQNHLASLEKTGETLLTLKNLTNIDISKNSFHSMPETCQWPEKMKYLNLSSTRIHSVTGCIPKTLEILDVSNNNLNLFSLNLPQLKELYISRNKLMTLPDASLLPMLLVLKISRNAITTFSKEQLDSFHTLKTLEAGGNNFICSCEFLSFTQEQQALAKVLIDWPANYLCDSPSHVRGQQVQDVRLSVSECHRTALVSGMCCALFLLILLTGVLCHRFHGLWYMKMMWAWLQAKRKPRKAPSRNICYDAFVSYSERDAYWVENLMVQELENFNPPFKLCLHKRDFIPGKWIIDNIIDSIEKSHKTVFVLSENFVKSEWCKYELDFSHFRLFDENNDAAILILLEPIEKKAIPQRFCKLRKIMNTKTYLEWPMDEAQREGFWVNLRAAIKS

SMILES | Emax [1] [%] | Emax [2] [%] | EC50 [1, 5] [nM] | EC50 [2, 6] [nM] | further results
CC(C)(C)OC(=O)N[C@@H](CCCCNC(=O)OCC1c2ccccc2-c2ccccc21)C(=O)OCCCCCCCCCCCCNC(=O)[C@@H]1CN(C(=O)c2ccc(C(=O)N3C[C@@H](C(=O)N[C@H]4C[C@@H]4c4ccccc4)[C@H](C(=O)N[C@H]4C[C@@H]4c4ccccc4)C3)cc2)C[C@H]1C(=O)N[C@H]1C[C@@H]1c1ccccc1 [Compound 69, (S)-12-((3S,4S)-1-(4-((3S,4S)-3,4-Bis(((1S,2R)-2-phenylcyclopropyl)carbamoyl)pyrrolidine-1-carbonyl)-benzoyl)-4-(((1S,2R)-2-phenylcyclopropyl)carbamoyl)-pyrrolidine-3-carboxamido)-dodecyl 6-((((9H-fluoren-9-yl)methoxy)-carbonyl)amino)-2-((tert-butoxy-carbonyl)amino)-hexanoate] | 100 | 200 |  |  | EC50 ([1]; read-out: EC50 (nM) (THP-1): EC50 TNF-α release from human THP-1 cells, Table 5): 280 nM; EC50 ([2]; read-out: EC50 (nM) (mouse): EC50 TNF-α release from mouse macrophages, Table 5): 1150 nM
CC(C)(C)Oc1ccc(C(=O)OCCCCCCCCCCCCNC(=O)[C@@H]2CN(C(=O)c3ccc(C(=O)N4C[C@@H](C(=O)N[C@H]5C[C@@H]5c5ccccc5)[C@H](C(=O)N[C@H]5C[C@@H]5c5ccccc5)C4)cc3)C[C@H]2C(=O)N[C@H]2C[C@@H]2c2ccccc2)cc1 [Compound 76, 12-((3S,4S)-1-(4-((3S,4S)-3,4-Bis(((1S,2R)-2-phenylcyclopropyl)carbamoyl)pyrrolidine-1-carbonyl)benzoyl)-4-(((1S,2R)-2-phenyl-cyclopropyl)carbamoyl)pyrrolidine-3-carboxamido)-dodecyl 4-(tert-butoxy)benzoate] | < 50 | 150 |  |  | EC50 [1, 3]: 27 nM; EC50 [2, 4]: 540 nM
CC(=O)NCC(=O)OCCCCCCCCCCCCNC(=O)[C@@H]1CN(C(=O)c2ccc(C(=O)N3C[C@@H](C(=O)N[C@H]4C[C@@H]4c4ccccc4)[C@H](C(=O)N[C@H]4C[C@@H]4c4ccccc4)C3)cc2)C[C@H]1C(=O)N[C@H]1C[C@@H]1c1ccccc1 [Compound 40, 12-((3S,4S)-1-(4-((3S,4S)-3,4-Bis(((1S,2R)-2-phenyl-cyclopropyl)carbamoyl)pyrrolidine-1-carbonyl)-benzoyl)-4-(((1S,2R)-2-phenylcyclopropyl)-carbamoyl)pyrrolidine-3-carboxamido)-dodecyl 2-acetamidoacetate] | 90 | 180 | 0.1 | 5 | 
CNC(=O)CCCCCCCCCCCNC(=O)[C@@H]1CN(C(=O)c2ccc(C(=O)N3C[C@@H](C(=O)N[C@H]4C[C@@H]4c4ccccc4)[C@H](C(=O)N[C@H]4C[C@@H]4c4ccccc4)C3)cc2)C[C@H]1C(=O)N[C@H]1C[C@@H]1c1ccccc1 [Compound 13, (3S,4S)-1-(4-((3S,4S)-3,4-Bis(((1S,2R)-2-phenylcyclo-propyl)carbamoyl)pyrrolidine-1-carbonyl)-benzoyl)-N^3-(12-(methylamino)-12-oxododecyl)-N^4-((1S,2R)-2-phenyl-cyclopropyl)pyrrolidine-3,4-dicarboxamide] | 120 | 150 |  |  | EC50 [1, 7]: 1 nM; EC50 [2, 8]: 60 nM
O=C(CNC(=O)C(F)(F)F)OCCCCCCCCCCCCNC(=O)[C@@H]1CN(C(=O)c2ccc(C(=O)N3C[C@@H](C(=O)N[C@H]4C[C@@H]4c4ccccc4)[C@H](C(=O)N[C@H]4C[C@@H]4c4ccccc4)C3)cc2)C[C@H]1C(=O)N[C@H]1C[C@@H]1c1ccccc1 [Compound 41, 12-((3S,4S)-1-(4-((3S,4S)-3,4-Bis(((1S,2R)-2-phenyl-cyclopropyl)carbamoyl)pyrrolidine-1-carbonyl)benzoyl)-4-(((1S,2R)-2-phenylcyclopropyl)-carbamoyl)pyrrolidine-3-carboxamido)-dodecyl 2-(2,2,2-trifluoroacetamido)acetate] | 100 | 100 | 0.7 | 3.5 | 
CN(C)CC(=O)OCCCCCCCCCCCCNC(=O)[C@@H]1CN(C(=O)c2ccc(C(=O)N3C[C@@H](C(=O)N[C@H]4C[C@@H]4c4ccccc4)[C@H](C(=O)N[C@H]4C[C@@H]4c4ccccc4)C3)cc2)C[C@H]1C(=O)N[C@H]1C[C@@H]1c1ccccc1 [Compound 44, 12-((3S,4S)-1-(4-((3S,4S)-3,4-Bis(((1S,2R)-2-phenylcyclopropyl)carbamoyl)pyrrolidine-1-carbonyl)benzoyl)-4-(((1S,2R)-2-phenylcyclo-propyl)carbamoyl)pyrrolidine-3-carboxamido)-dodecyl 2-(dimethylamino)acetate] | 100 | 140 | 0.05 | 4.7 | EC50 [1]: 0.05 to 0.2 nM; EC50 [2]: 0.7 to 5 nM
O=C(O)CNC(=O)CCCCCCCCCCCNC(=O)[C@@H]1CN(C(=O)c2ccc(C(=O)N3C[C@@H](C(=O)N[C@H]4C[C@@H]4c4ccccc4)[C@H](C(=O)N[C@H]4C[C@@H]4c4ccccc4)C3)cc2)C[C@H]1C(=O)N[C@H]1C[C@@H]1c1ccccc1 [Compound 15, (12-((3S,4S)-1-(4-((3S,4S)-3,4-Bis(((1S,2R)-2-phenylcyclopropyl)carbamoyl)pyrrolidine-1-carbonyl)benzoyl)-4-(((1S,2R)-2-phenylcyclopropyl)carbamoyl)pyrrolidine-3-carboxamido)-dodecanoyl)glycine] | 110 | 30 |  |  | EC50 [1, 7]: 200 nM; EC50 [2, 8]: 1200 nM
O=C(CNC(=O)c1ccc(C(=O)O)cc1)OCCCCCCCCCCCCNC(=O)[C@@H]1CN(C(=O)c2ccc(C(=O)N3C[C@@H](C(=O)N[C@H]4C[C@@H]4c4ccccc4)[C@H](C(=O)N[C@H]4C[C@@H]4c4ccccc4)C3)cc2)C[C@H]1C(=O)N[C@H]1C[C@@H]1c1ccccc1 [Compound 80, 4-((2-((12-((3S,4S)-1-(4-((3S,4S)-3,4-Bis(((1S,2R)-2-phenylcyclopropyl)carbamoyl)pyrrolidine-1-carbonyl)-benzoyl)-4-(((1S,2R)-2-phenylcyclopropyl)carbamoyl)-pyrrolidine-3-carboxamido)-dodecyl)oxy)-2-oxoethyl)carbamoyl)benzoic acid] | 100 | 60 |  |  | EC50 [1, 3]: 0.17 nM; EC50 [2, 4]: 5 nM
O=C(NCCCCCCCCCCCCO)[C@@H]1CN(C(=O)c2ccc(C(=O)N3C[C@@H](C(=O)N[C@H]4C[C@@H]4c4ccccc4)[C@H](C(=O)N[C@H]4C[C@@H]4c4ccccc4)C3)cc2)C[C@H]1C(=O)N[C@H]1C[C@@H]1c1ccccc1 [Compound 7, (3S,4S)-1-(4-((3S,4S)-3,4-Bis(((1S,2R)-2-phenyl-cyclopropyl)carbamoyl)pyrrolidine-1-carbonyl)-benzoyl)-N^3-(12-hydroxydodecyl)-N^4-((1S,2R)-2-phenyl-cyclo-propyl)pyrrolidine-3,4-dicarboxamide] | 90 | 110 | 0.21 | 1.2 | 
O=C(NCCCCCCCCCCO)[C@@H]1CN(C(=O)c2ccc(C(=O)N3C[C@@H](C(=O)N[C@H]4C[C@@H]4c4ccccc4)[C@H](C(=O)N[C@H]4C[C@@H]4c4ccccc4)C3)cc2)C[C@H]1C(=O)N[C@H]1C[C@@H]1c1ccccc1 [Compound 8, (3S,4S)-1-(4-((3S,4S)-3,4-Bis(((1S,2R)-2-phenyl-cyclopropyl)carbamoyl)pyrrolidine-1-carbonyl)benzoyl)-N^3-(10-hydroxydecyl)-N^4-((1S,2R)-2-phenylcyclopropyl)-pyrrolidine-3,4-dicarboxamide] | 90 | 110 |  |  | 
